According to patent publication US9539322B2, “Method of enhancing an antitumor T cell response by administering an anti-IL-6 receptor antibody” (National University Corporation Hokkaido University, priority 2010, dated 2017):
Counter-ions that a name gives are not always drawn.

Assays:
CD8^+ cells = assay: Growth ability of spleen CD8+ cells after anti-CD3 stimulation (3H incorporation test), CMC-1 tumor-bearing mice; format: in vivo, BALB/c mice; conditions: i.p. 30 days after CMC-1 inoculation (GEM; CY 60 mg/kg; 5-FU 120 mg/kg); spleen CD8+ cells after 48 hours; 60 hours immobilized anti-CD3 2 μg/ml; FIG. 3
Description: (§1) GEM was administered to the tumor-bearing mice 30 days after CMC-1 inoculation, and after 48 hours the absolute number of respective cell populations in the spleen were analyzed by flow cytometry. Cyclophosphamide (CY) (60 mg/kg), fluoro-5-uracil (5-FU) (120 mg/kg), or GEM was intraperitoneally administered to tumor-bearing mice 30 days after CMC-1 inoculation. After 48 hours, CD8^+ cells were isolated from the spleen, and the growth ability after 60 hours of stimulation with immobilized anti-CD3 antibody (2 μg/ml) was assessed by ^3H incorporation test.

CD8^+ T cells = assay: Tumor diameter with GEM and anti-CD8 antibody (CMC-1); proportion of OVA-specific CD8+ cytotoxic T cells (LLC-OVA); format: in vivo, BALB/c mice; C57BL6 mice; conditions: GEM 120 mg/kg i.p.; anti-CD8 antibody 250 μg i.v. every three days (CMC-1); OVA-specific CD8+ CTL in regional lymph nodes (LLC-OVA); FIG. 4, 5
Description: CMC-1 (2×10^6) was intradermally inoculated to BALB/c mice. From day 5 after inoculation, GEM (120 mg/kg) was intraperitoneally administered every week and anti-CD8 antibody (250 μg) was intravenously administered every three days. The tumor diameter was measured every two days. LLC-OVA (2×10^6) prepared by introducing the ovalbumin (OVA) gene into mouse lung cancer cell line LLC was intradermally inoculated to C57BL6 mice, and after five days GEM (120 mg/kg) was intraperitoneally administered. After nine days, the regional lymph nodes were collected and assessed by flow cytometry for the proportion of OVA-specific CD8^+ cytotoxic T cells.

[1] = test system: methylcholanthrene-induced squamous cancer CMC-1; assay: Antitumor effect of GEM in CMC-1-inoculated mice (tumor growth); format: in vivo; conditions: CMC-1 intradermal in BALB/c mice; 120 mg/kg i.p. every week from day 5; FIG. 1
Description: Cell line of methylcholanthrene-induced squamous cancer CMC-1 (2×10^6 cells) was intradermally inoculated to BALB/c mice, and from day 5 after inoculation, GEM (Gemzar: gemcitabine hydrochloride) was intraperitoneally administered at 120 mg/kg every week. The tumor growth was measured every two days to evaluate the antitumor effect of GEM.

immunosuppressive cells = assay: Flow cytometry of the absolute number of cell populations in the spleen of CMC-1 tumor-bearing mice; format: in vivo, BALB/c mice; conditions: tumor-bearing mice 30 days after CMC-1 inoculation; 48 hours after administration; FIG. 2
Description: as §1

| Compound | growth-enhancing effect for CD8+ T cells (CD8^+ cells) | antitumor effect through CD8+ T cell activity (CD8^+ T cells) | tumor growth-suppressive effect [1] | elimination of immunosuppressive cells in the spleen (immunosuppressive cells) |
| --- | --- | --- | --- | --- |
| O=P1(N(CCCl)CCCl)NCCCO1 (stereo not drawn) [CY, Cyclophosphamide] | not observed |  |  |  |
| Nc1ccn([C@@H]2O[C@H](CO)[C@@H](O)C2(F)F)c(=O)n1 [GEM, gemcitabine hydrochloride] | excellent growth-enhancing effect for CD8^+ T cells | produces the antitumor effect by enhancing the activity of CD8^+ T cells | tumor growth-suppressive effect | eliminates immunosuppressive cells |
| O=c1[nH]cc(F)c(=O)[nH]1 [5-FU, fluoro-5-uracil] | not observed |  |  |  |
